Laboratory results: patent US20250064886A1, “CARDIOVASCULAR AND CEREBROVASCULAR DRUG AND USE THEREOF” (HANGZHOU ADAMERCK PHARMLABS INC., priority 2021, published 2025)

Legend:
[1] = system: lipid ROS levels in Erastin-induced nerve cells; experiment: Lipid ROS levels (C11-BODIPY probe) in Erastin-induced nerve cells (Example 8); type: cell-based, rat; settings: Erastin 50 μM
Method: Experimental method: Primary neuron cells were incubated in a medium containing Erastin (final concentration of 50 μM) for 24 hours, and then incubated in a medium containing different concentrations of the test drug and Erastin (final concentration of 50 μM) for another 24 hours. After incubation, Real time PCR was used to detect mRNA expression of GPX4 in each group of cells, CCK8 assay was used to detect cell viability in each group of cells, C11-BODIPY probe method was used to detect intracellular lipid ROS levels in each group of cells, and PGSK probe method was used to detect iron content in cells.
The experimental data were expressed in means±SD, and statistical differences between groups were determined using one-way ANOVA and Tukey's test, with p-values less than 0.05 considered significant.
After incubation, the C11-BODIPY probe method was used to detect the lipid ROS levels in each group of cells. The results were presented as Mean±SD. Compared with the control group, ***p<0.0001; compared with the model group, #p<0.05, ##p<0.01.

[2] = system: rats with focal cerebral ischemia (MCAO)/reperfusion; experiment: Therapeutic administration, cerebral ischemia-reperfusion injury MCAO/R in rats (Example 7); type: in vivo, rat
Method: Experimental method: SD rats were randomly divided into 11 groups, including pseudosurgery group, a model control group, positive control drug edaravone via intravenous injection (6 mg/kg, i.v.) group, positive control drug butylphthalide injection via intravenous injection (5 mg/kg, i.v.) group, compound (1) high-dose (24 mg/kg, i.v.), medium-dose (12 mg/kg, i.v.), low-dose (6 mg/kg, i.v.) via intravenous injection group, positive drug butylphthalide soft capsule via intragastric administration (60 mg/kg, i.g.) group, and compound via intragastric administration at (1) high-dose (60 mg/kg, i.g.), medium-dose (30 mg/kg, i.g.), low-dose (15 mg/kg, i.g.) group. A middle cerebral artery occlusion (MCAO) model for cerebral ischemia-reperfusion of male rats was prepared using the internal carotid suture-occluded method with an ischemic time of 90 min followed by reperfusion. Injection and oral administration for once were performed 1 h after reperfusion, and neurobehavioral scoring was performed on rats after 24 h to determine neurological function in rats; the cerebral infarction rate and cerebral water content of rats were determined by 2,3,5-triphenyltetrazolium chloride (TTC) staining.

[3] = system: cerebral ischemic injury in rats caused by autologous thrombus and thrombin; experiment: Ischemic brain injury in rats caused by autologous thrombus and thrombin (Example 6); type: in vivo, rat
Method: The drug was administered once by slow tail vein injection (1 ml per minute) 2 h after modeling, and the decrease in blood flow was monitored after the injection of thrombin, and 120 min after the administration of the drug. Neurobehavioral scoring was performed to determine the neurological function of rats after 24 h. The cerebral infarction rate and cerebral water content of rats were determined using 2,3,5-triphenyltetrazolium chloride (TTC) staining method, and the pathological damage of the brain of rats administered with drug 2 h after cerebral ischemia was observed by hematoxylin-eosin (HE) staining.

[4] = system: vascular endothelial injury induced thrombosis model in zebrafish; experiment: Preventative effect on vascular endothelial injury induced thrombosis, ponatinib zebrafish model (Example 1); type: in vivo; settings: 4.00 ng/tail injected
Method: Experimental method: 420 tails of 5 dpf wild type AB strain zebrafish were randomly selected and placed in a six-well plate, with 30 fish per well (experimental group). The fish were injected with compound (1), compound (2), compound (3), compound (4), compound (5), compound (6), compound (7), compound (8), compound (9), compound (10), and compound (11) (structural formula shown in Table 1) at a dose of 4.00 ng/tail, with positive control drug acetylsalicylic acid being administered by dissolving it in water at a concentration of 30.0 µg/mL. Normal control group (i.e. zebrafish treated with standard diluted water) and model control group were set up, with a capacity of 3 mL per well (experimental group). Except for normal control group, the remaining experimental groups were all given Punatinib by dissolving it in water to induce vascular endothelial injury induced thrombosis model in zebrafish. The zebrafish were stained with o-dianisidine after co-treatment with ponatinib and samples for a period of time under incubation conditions at 28° C.
After staining, 10 zebrafish in each group were randomly selected and photographed under the microscope, and the intensity of cardiac erythrocyte staining in zebrafish was analyzed using NIS-Elements D 3.20 advanced image-processing software, and the samples were evaluated for the preventative effect on vascular endothelial injury induced thrombosis by the statistical results of cardiac erythrocyte staining intensity.
The preventative effect on thrombosis is calculated as follows: […]
Statistical analysis was performed using SPSS software, and p<0.05 indicates significant differences

`CC(=O)N[C@H](CSCC1OC2OC3C(CSC[C@@H](NC(C)=O)C(=O)[O-])OC(OC4C(CSC[C@@H](NC(C)=O)C(=O)[O-])OC(OC5C(CSC[C@@H](NC(C)=O)C(=O)[O-])OC(OC6C(CSC[C@@H](NC(C)=O)C(=O)[O-])OC(OC7C(CSC[C@@H](NC(C)=O)C(=O)[O-])OC(OC8C(CSC[C@@H](NC(C)=O)C(=O)[O-])OC(OC9C(CSC[C@@H](NC(C)=O)C(=O)[O-])OC(OC1C(O)C2O)C(O)C9O)C(O)C8O)C(O)C7O)C(O)C6O)C(O)C5O)C(O)C4O)C(O)C3O)C(=O)[O-].[Na+].[Na+].[Na+].[Na+].[Na+].[Na+].[Na+].[Na+]` (stereo partly drawn) [Compound (1)] was tested, and the “Lipid ROS levels (%)” value ([1]; 1 μM, control = 100, Mean±SD) was 150.18 ± 6.05^ %, the “Lipid ROS levels (%)” value ([1]; 2.5 μM) was 142.58 ± 3.01^ % and the “Lipid ROS levels (%)” value ([1]; 5 μM) was 137.9 ± 6.72%. The “Lipid ROS levels (%)” value ([1]; 10 μM) was 132.33 ± 6.57^## %, the “Lipid ROS levels (%)” value ([1]; 20 μM) was 121.82 ± 5.9^## % and the “Lipid ROS levels (%)” value ([1]; 40 μM) was 114.13 ± 8.82^## %. The Behavioral score ([2]; 6 mg/kg i.v. low-dose) was 2.13 ± 0.35, the “Cerebral infarction rate (%)” value ([2]; 6 mg/kg i.v. low-dose) was 30.03 ± 7.79% and the “Cerebral water content (%)” value ([2]; 6 mg/kg i.v. low-dose) was 82.30 ± 1.04 %. For the same molecule, the Behavioral score ([2]; 12 mg/kg i.v. medium-dose) was 1.88 ± 0.35, the “Cerebral infarction rate (%)” value ([2]; 12 mg/kg i.v. medium-dose) was 16.94 ± 9.52 % and the “Cerebral water content (%)” value ([2]; 12 mg/kg i.v. medium-dose) was 80.74 ± 0.89 %. The Behavioral score ([2]; 15 mg/kg i.g. low-dose) was 2.25 ± 0.71, the “Cerebral infarction rate (%)” value ([2]; 15 mg/kg i.g. low-dose) was 29.49 ± 5.93% and the “Cerebral water content (%)” value ([2]; 15 mg/kg i.g. low-dose) was 82.24 ± 1.49%. The Behavioral score ([2]; 24 mg/kg i.v. high-dose) was 1.62 ± 0.52, the “Cerebral water content (%)” value ([2]; 24 mg/kg i.v. high-dose) was 79.95 ± 1.16 % and the “Cerebral infarction rate (%)” value ([2]; 24 mg/kg i.v. high-dose, 1 h after reperfusion) was 11.64 ± 9.38 %. For the same molecule, the Behavioral score ([2]; 30 mg/kg i.g. medium-dose) was 2.00 ± 0.53, the “Cerebral infarction rate (%)” value ([2]; 30 mg/kg i.g. medium-dose) was 21.52 ± 11.04 % and the “Cerebral water content (%)” value ([2]; 30 mg/kg i.g. medium-dose) was 80.61 ± 1.21 %. The Behavioral score ([2]; 60 mg/kg i.g. high-dose) was 1.62 ± 0.52, the “Cerebral infarction rate (%)” value ([2]; 60 mg/kg i.g. high-dose) was 13.61 ± 10.24 % and the “Cerebral water content (%)” value ([2]; 60 mg/kg i.g. high-dose) was 79.87 ± 1.71 %. For the same molecule, the “Cerebral blood flow: Percentage decrease after injection of thrombin (%)” value ([3]; 22.5 mg/kg group, value before administration, mean ± SD, n = 10) was 43.67 ± 7.17%, the “Cerebral infarction rate (%)” value ([3]; 22.5 mg/kg i.v.) was 13.91 ± 10.78 % and the “Cerebral water content (%)” value ([3]; 22.5 mg/kg i.v.) was 79.93 ± 1.98 %. For the same molecule, the “Cerebral blood flow: Percentage decrease two hours after administration (%)” value ([3]; 22.5 mg/kg i.v. once 2 h after modeling) was 27.14 ± 6.38 %, the Pathological damage score ([3]; 22.5 mg/kg i.v., HE staining, mean ± SD, n = 10) was 1.90 ± 1.10 and the Behavioral score ([3]; 22.5 mg/kg i.v., after 24 h) was 1.60 ± 0.70. For the same molecule, the “Preventative effect on thrombosis (%)” value [4] was 66%, the “Cardiac erythrocyte staining intensity (pixels, mean ± SE)” value ([4]; n = 10) was 4397 ± 454 pixels and the “Cardiac erythrocyte staining intensity (pixels, mean ± SE)” value ([4]; n = 10, listed as compound (1)) was 4397 pixels.
